Experimental findings from US20230346741A1, “ERIODICTYOL COMPOSITIONS AND METHODS” (CAS PROPERTIES, LLC, priority 2022, published 2023) are described below.

Assay [1] is described as follows: Treatment of a subject with long-COVID syndrome (case report). It is filed as in vivo, human. The settings on record: 60 mg per day (2 x 30 mg capsules) for three months; one subject. As to the method:
A subject having a diagnosis of long-COVID syndrome was administered 60 milligrams (mg) eriodictyol (30 mg/vegetarian capsule; 2 capsules daily) per day for three months. The subject reported an over 80% reduction in long-covid symptoms that included a 80% reduction in fatigue, brain fog, difficulty concentrating, difficulty remembering, difficulty finding the right words, and difficulty multi-tasking.

In the next assay the test system is Chikungunya virus. Briefly: Plaque reduction in human microglia cells infected with Chikungunya virus. The settings on record: 100 micromolar concentration; FIG. 1.
Assay [2] relates to IL-1β secretion, human SV40 microglia cells. Briefly: IL-1β secretion by LPS-stimulated human SV40 microglia after pretreatment. It is filed as cell-based. The conditions noted are these: 50 micromolar concentration; pretreated two hours, then LPS stimulation; FIG. 2. The source says:
Cultured human SV40 microglia cells were pretreated with eriodictyol (Erio) or nobiletin (Nobi) for two hours to determine the degree to which eriodictyol and nobiletin inhibits the secretion of the proinflammatory cytokine interleukin-1β(IL-1β) followed by stimulation by bacteria lipopolysaccharide (LPS).

On to `O=C1C[C@@H](c2ccc(O)c(O)c2)Oc2cc(O)cc(O)c21` [eriodictyol, (2S)-2-(3,4-Dihydroxyphenyl)-5,7-dihydroxy-2,3-dihydro-4H-1-benzopyran-4-one], for which, in assay [1], the “reduction in fatigue, brain fog, difficulty concentrating, remembering, finding the right words and multi-tasking (subject-reported)” value is reported as 80%; the “reduction in long-covid symptoms (subject-reported)” value is “over 80%”. The “potency of plaque inhibition compared with nobiletin” value in the assay with Chikungunya virus is on record as “slightly more potent inhibitor than nobiletin”. Further, the “inhibition of IL-1β secretion compared with luteolin and methoxyluteolin” value in assay [2] is “more potent inhibitors of IL-1β secretion as compared to luteolin (Lut) and methoxyluteolin (Methlut)”.

In the case of `COc1ccc(-c2cc(=O)c3c(OC)c(OC)c(OC)c(OC)c3o2)cc1OC` [nobiletin, reference compound], the “inhibition of IL-1β secretion compared with luteolin and methoxyluteolin” value in assay [2] was “more potent inhibitors of IL-1β secretion as compared to luteolin (Lut) and methoxyluteolin (Methlut)”.
